# Results as given in paper PMC8868400, “Structure–Activity Relationships and Transcriptomic Analysis of Hypoxia-Inducible Factor Prolyl Hydroxylase Inhibitors” (Antioxidants, 2022).
# Where “and” joins values, the source holds several entries; their conditions need not be identical. Equal entries are not always repeated. Entries after “also recorded” stand apart in the source; their conditions may differ. Where two headings read alike, the source gives them in different places.
# Tests used:
# [1] = set-up: method as in PMID 20416509; conditions: estimated; read-out: KD of iron chelation; cited from earlier work
# [2] = tested on: HIF1 ODD-luc reporter (intracellular HIF PHD), HIF1 ODD-luc/SH-SY5Y cell line; experiment: HIF1 ODD-luc reporter assay; assay type: cell-based, human; conditions: for Potency in HIF1 ODD-luc reporter assay (in words, comparative) / IC50: SH-SY5Y, 3 h incubation; for IC50: read-out: IC50 of HIF1 ODD-luc reporter activation; for Interference of free iron with reporter activation: cells loaded with ferrous sulfate 20 min before drug
# Protocol: The reporter assay on the HIF1 ODD-luc/SH-SY5Y cell line was performed as described in [10]. Drugs were freshly prepared as 10 mM stock solutions in DMSO, and right before the experiment were diluted to 50×-fold to the final concentration in the well, so each well with 100 μL medium was inoculated with 2 μL of the drug solution. Cells were incubated for 3 h and then lysed and assayed for luciferase activity. To evaluate the effect of iron, the cells were loaded with the corresponding concentrations of ferrous sulfate in the medium for 20 min before the drug’s addition. All experiments were performed in triplicate. The fold activation with respect to the background luminescence in the presence 2 μL DMSO aliquot was plotted against drug concentrations. The results are shown as average ± SD.
# The HIF1 ODD-luc reporter assay employs a cell line stably expressing a reporter vector providing the continuous production of an oxygen-dependent domain of HIF1α fused via its C-terminus to N-terminus of firefly luciferase. The steady-state level of the fusion protein depends on the ratio of the rates of its production (pcmv promoter) and degradation upon hydroxylation, binding to VHL and proteasomal degradation. […] Enzyme inhibition results in an immediate response in the form of luciferase fusion accumulation. The performance of the fusion reporter is equivalent to monitoring the actual fate of intracellular HIFs upon enzyme inhibition. […] However, both vadadustat and roxadustat worked in a very high micromolar range (IC50 above 30 μM). […] The use of high concentrations of the αKG mimetic drugs to overcome the competition from the intracellular αKG may result in targeting other αKG-dependent pathways that are unrelated to αKG-dependent dioxygenases, such as kynurenine-oxoglutarate transaminase and αKG dehydrogenase E1. In fact, DMOG is known to inhibit the αKG dehydrogenase complex and oxygen consumption by mitochondria. This plausible break in specificity could be a reason for concerns on the safety of HIF PHD inhibitor drugs in comparison with the use of recombinant EPO [17].
# SH-SY5Y cell line = experiment: Transcriptomic microarray analysis (Gene Chip Human Transcriptome Array 2.0); assay type: cell-based; conditions: for Number of downregulated genes / Number of upregulated genes: 0.5 mM DMOG, 30 μM roxadustat, 2 μM oxyquinolines; for Downregulated genes in common with hypoxia / Upregulated genes in common with hypoxia: hypoxia 2 h + 5 h; for Suppression of ATF4 signaling pathway: heatmap
# Protocol: Transcriptomic microanalysis was performed as described in [12]. The human neuroblastoma SH-SY5Y cell line was grown on DMEM/F12 (Paneco Ltd., Moscow, Russia) containing 10% FBS (Thermo Fisher Scientific Inc., Waltham, MA, USA), and the cells were plated in 6-well plates (TPP, Russia) at a cell/well density of 500,000 the day before the drug treatment. The drugs—2 μM oxyquinoline(s), 30 μM (roxadustat), and 0.5 mM DMOG—were added to the cells in triplicate, and the cells were incubated for 5 h. The control wells contained 4 μL DMSO. The hypoxic conditions were created by incubation in 1% O2, 5% CO2, and 94% N2 atmosphere for 2 h (the medium was incubated under the same conditions for 16 h before addition to the cells). After 2 h hypoxia, the cells were returned to the original incubation conditions in a CO2 incubator and kept for another 5 h. After incubation, the cells were lysed with the Qiazol reagent (Qiagen N.V., Venlo, The Netherlands). The RNA was isolated using the RNeasy Micro Kit (Qiagen); the qualitative and quantitative analysis of the RNA was performed as described earlier. The RNA integrity number (RIN) values for all the samples were above 9.5. All steps of the sample preparation, hybridization, washing, staining, and microchip scanning were performed as described before. The mRNA expression profile was analyzed using the Gene Chip Human Transcriptome Array 2.0 (Thermo Fisher Scientific Inc., Waltham, MA, USA). The CEL files obtained during microchip scanning were treated with the Transcriptome Analysis Console 2.0 application (Thermo Fisher Scientific-Affymetrix, Santa Clara, CA, USA). Unannotated probe sets were excluded from the analysis. The results obtained were statistically processed using the TAC 4.0 software (Thermo Fisher Scientific). The statistical reliability for the differences in the expression levels between the intact cells and cells treated with the studied compounds was evaluated using the monofactorial analysis of variance (ANOVA) with the Benjamini–Hochberg correction. The significance threshold was 0.05.
# SH-SY5Y cells [3] = experiment: Oxygen-glucose deprivation (OGD) model, MTT viability; assay type: cell-based, human; conditions: 24 h pretreatment
# Protocol: (§1) For oxygen-glucose deprivation (OGD) studies, 40,000 SH-SY5Y cells were plated in each well of 96-well plates. After overnight incubation, cells were treated with 1 and 3 μM concentrations of drugs for 24 h prior to OGD, at the onset of OGD, and at the onset of reperfusion. The compounds’ toxicity at the 1, 5, and 8 μM concentrations was assessed at 48 h. Oxygen glucose deprivation was performed as follows. The medium was replaced with DMEM containing no glucose, and then the cells were transferred to a sealed hypoxic chamber with 5% CO2-95% N2 atmosphere for 2 h. After 2 h incubation, the cells were removed from the hypoxic chamber and resupplied with a regular growth media for reperfusion/recovery. After 24 h incubation, cell viability was quantified using an MTT (4,5-dimethylthiazol-2-yl)-2,5-diphenyltetrazolium bromide, Sigma) assay.
# The oxygen deprivation model (OGD) was performed using the human neuroblastoma SH-SY5Y cell line. […] The branched oxyquinoline drugs were added either 24 h before the onset of OGD, at the onset of ischemia induced by OGD insult, or with the reperfusion media at the end of OGD, as described in Methods and shown in Figure 6a.
# SH-SY5Y cells [4] = experiment: Compound toxicity at 48 h incubation without OGD; assay type: cell-based, human; conditions: 8 μM
# Protocol: as §1
# [5] = 5 h treatment, 1.5-fold cut-off
# [6] = 5 h treatment, 1.5-fold cut-off, listed as 570-0720
# [7] = 5 h treatment, 1.5-fold cut-off, listed as FG
compound,measurement,setting,value
Cc1cc(C2CCCCC2)n(O)c(=O)c1 [ciclopirox],Kd,[1],50 nM
"COC(=O)CNC(=O)C(=O)OC [DMOG, dimethyl oxalylglycine, reference compound]","Potency in HIF1 ODD-luc reporter assay (in words, comparative)",[2],millimolar potency
same,IC50,[2],500000 nM
same,Overlap of downregulated genes for the couple roxadustat and DMOG,SH-SY5Y cell line; 5 h treatment,80%
same,Share of downregulated genes overlapping with hypoxia,SH-SY5Y cell line; 5 h treatment,~50%
same,Share of upregulated genes overlapping with those induced by hypoxia,SH-SY5Y cell line; 5 h treatment,More than 30%
same,Downregulated genes in common with FG (roxadustat),SH-SY5Y cell line; [5],160 genes
same,Upregulated genes in common with FG (roxadustat),SH-SY5Y cell line; [5],476 genes
same,Number of downregulated genes,SH-SY5Y cell line; [5],200–260 genes and 204 genes
same,Number of upregulated genes,SH-SY5Y cell line; [5],600–700 genes and 608 genes
same,Downregulated genes in common with hypoxia,SH-SY5Y cell line; [5],104 genes
same,Upregulated genes in common with hypoxia,SH-SY5Y cell line; [5],279 genes
same,Suppression of ATF4 signaling pathway,SH-SY5Y cell line; 5 h treatment,weaker
Cc1ccc2ccc(C(Nc3ccccn3)c3ccc(C(C)C)cc3)c(O)c2n1 (stereo not shown) [5704-0720],IC50,"[2]; Homo sapiens, 3 h",2000 nM
same,"Potency in HIF1 ODD-luc reporter assay (in words, comparative)",[2],ca. two-fold less potent
same,Reduction in number of genes overlapped with roxadustat in comparison to isopropyl-neuradapt,"SH-SY5Y cell line; 2 μM, 5 h",~20%
same,Downregulated genes in common with DMOG,SH-SY5Y cell line; [5],38 genes
same,Downregulated genes in common with FG (roxadustat),SH-SY5Y cell line; [5],60 genes
same,Upregulated genes in common with DMOG,SH-SY5Y cell line; [5],126 genes
same,Upregulated genes in common with FG (roxadustat),SH-SY5Y cell line; [5],195 genes
same,Number of downregulated genes,SH-SY5Y cell line; [5],200–260 genes
same,Number of upregulated genes,SH-SY5Y cell line; [5],600–700 genes
same,Number of downregulated genes,SH-SY5Y cell line; [6],259 genes
same,Number of upregulated genes,SH-SY5Y cell line; [6],600 genes
same,Downregulated genes in common with hypoxia,SH-SY5Y cell line; [5],17 genes
same,Upregulated genes in common with hypoxia,SH-SY5Y cell line; [5],86 genes
same,Suppression of ATF4 signaling pathway,SH-SY5Y cell line; 5 h treatment,no suppression; also recorded: inactive
Cc1ccnc(NC(c2ccc(C(C)C)cc2)c2ccc3cccnc3c2O)c1 (stereo not shown) [4896-3249],IC50,"[2]; Homo sapiens, 3 h",1000 nM
same,"Potency in HIF1 ODD-luc reporter assay (in words, comparative)",[2],equally active
same,viability at 3 µM,"SH-SY5Y cells [3]; Homo sapiens, SH-SY5Y, 3 μM, insult alone 70%, MTT after 24 h recovery, read-out: Cell viability after OGD",90%
same,Downregulated genes in common with 570-0720,SH-SY5Y cell line; [5],231 genes
same,Downregulated genes in common with DMOG,SH-SY5Y cell line; [5],52 genes
same,Downregulated genes in common with FG (roxadustat),SH-SY5Y cell line; [5],73 genes
same,Upregulated genes in common with 570-0720,SH-SY5Y cell line; [5],524 genes
same,Upregulated genes in common with DMOG,SH-SY5Y cell line; [5],188 genes
same,Upregulated genes in common with FG (roxadustat),SH-SY5Y cell line; [5],257 genes
same,Number of downregulated genes,SH-SY5Y cell line; [5],386 genes
same,Number of upregulated genes,SH-SY5Y cell line; [5],1092 genes
same,Downregulated genes in common with hypoxia,SH-SY5Y cell line; [5],31 genes
same,Upregulated genes in common with hypoxia,SH-SY5Y cell line; [5],152 genes
same,Suppression of ATF4 signaling pathway,SH-SY5Y cell line; 5 h treatment,inhibits several pro-death pathways with ATF4 being one of them; also recorded: enhanced suppression
Cc1ccc2ccc(C(Nc3ccccn3)c3ccc(C(C)C)cc3)c(O)c2n1 (stereo not shown) [compound 7],Toxicity at prolonged incubation,SH-SY5Y cells [4],least toxic
Cc1ccnc(NC(c2ccc(C(C)(C)C)cc2)c2cc(Cl)c3cccnc3c2O)c1 (stereo not shown) [compound 8],Toxicity at prolonged incubation,SH-SY5Y cells [4],least toxic
Cc1ccnc(NC(c2ccc(C(C)(C)C)cc2)c2ccc3cccnc3c2O)c1 (stereo not shown) [4896-3212],IC50,"[2]; Homo sapiens, 3 h",1000 nM
same,"Potency in HIF1 ODD-luc reporter assay (in words, comparative)",[2],submicromolar IC50 values
same,IC50,[2],< 1000 nM
same,Interference of free iron with reporter activation,[2],interference of free iron with the reporter activation
"Oc1cccnc1NC(c1ccc(Cl)cc1)c1ccc2cccnc2c1O (stereo not shown) [adaptaquin, reference compound]",Neuroprotection in OGD,SH-SY5Y cells [3]; 1–3 μM,20–30%
"O=C(O)CNC(=O)c1ncc(-c2cccc(Cl)c2)cc1O [vadadustat, reference compound]",IC50,"[2]; Homo sapiens, 3 h",> 30000 nM
"Cc1nc(C(=O)NCC(=O)O)c(O)c2ccc(Oc3ccccc3)cc12 [roxadustat, reference compound]",IC50,"[2]; Homo sapiens, 3 h",> 30000 nM
same,IC50,[2]; listed as Roxadustat,~25000 nM
same,IC50,[2],30000 nM
same,Interference of free iron with reporter activation,[2],not observed
same,Overlap of downregulated genes for the couple roxadustat and DMOG,SH-SY5Y cell line; 5 h treatment,80%
same,Share of downregulated genes overlapping with hypoxia,SH-SY5Y cell line; 5 h treatment,~50%
same,Share of upregulated genes overlapping with those induced by hypoxia,SH-SY5Y cell line; 5 h treatment,More than 30%
same,Number of downregulated genes,SH-SY5Y cell line; [5],200–260 genes
same,Number of upregulated genes,SH-SY5Y cell line; [5],600–700 genes
same,Number of downregulated genes,SH-SY5Y cell line; [7],209 genes
same,Number of upregulated genes,SH-SY5Y cell line; [7],714 genes
same,Downregulated genes in common with hypoxia,SH-SY5Y cell line; [5],96 genes
same,Upregulated genes in common with hypoxia,SH-SY5Y cell line; [5],261 genes
same,Suppression of ATF4 signaling pathway,SH-SY5Y cell line; 5 h treatment,weaker
Cc1ccnc(NC(c2ccc(C(C)(C)C)cc2)c2cc(Cl)c3cccnc3c2O)c1 (stereo not shown) [5-chloro-neuradapt],"Potency in HIF1 ODD-luc reporter assay (in words, comparative)",[2],almost as active as the original compound
